± gives the uncertainty stated by the source.
Test: xn = mol fraction of the nth substance listed

OCCCO + CS(C)=O
viscosity [mPa·s], 101 kPa
Details | 293.15 K | 298.15 K | 303.15 K | 308.15 K | 313.15 K | 318.15 K
x1 = 0.0513 | 2.47 ± 0.03 | 2.13 ± 0.03 | 2.03 ± 0.03 | 1.84 ± 0.03 | 1.7 ± 0.03 | 1.61 ± 0.03
x1 = 0.1024 | 2.88 ± 0.03 | 2.59 ± 0.03 | 2.32 ± 0.03 | 2.09 ± 0.03 | 1.89 ± 0.03 | 1.78 ± 0.03
x1 = 0.1534 | 3.26 ± 0.03 | 2.95 ± 0.03 | 2.63 ± 0.03 | 2.35 ± 0.03 | 2.14 ± 0.03 | 2 ± 0.03
x1 = 0.2043 | 3.74 ± 0.03 | 3.35 ± 0.03 | 2.99 ± 0.03 | 2.67 ± 0.03 | 2.4 ± 0.03 | 2.24 ± 0.03
x1 = 0.255 | 4.29 ± 0.04 | 3.84 ± 0.04 | 3.41 ± 0.03 | 3.02 ± 0.03 | 2.71 ± 0.03 | 2.41 ± 0.03
x1 = 0.3056 | 4.96 ± 0.04 | 4.32 ± 0.04 | 3.8 ± 0.04 | 3.43 ± 0.03 | 3.09 ± 0.03 | –
x1 = 0.356 | 5.73 ± 0.04 | 5.04 ± 0.04 | 4.44 ± 0.04 | 3.87 ± 0.04 | 3.47 ± 0.03 | –
x1 = 0.4064 | 6.64 ± 0.05 | 5.81 ± 0.04 | 5.05 ± 0.04 | 4.42 ± 0.04 | 3.92 ± 0.04 | –
x1 = 0.4566 | 7.69 ± 0.05 | 6.73 ± 0.05 | 5.82 ± 0.04 | 5.05 ± 0.04 | 4.46 ± 0.04 | –
x1 = 0.5066 | 9 ± 0.06 | 7.73 ± 0.05 | 6.65 ± 0.05 | 5.81 ± 0.04 | 5.08 ± 0.04 | –
x1 = 0.5565 | 10.6 ± 0.1 | 9.09 ± 0.06 | 7.76 ± 0.05 | 6.67 ± 0.05 | 5.81 ± 0.04 | –
x1 = 0.6063 | 12.5 ± 0.1 | 10.6 ± 0.1 | 9.02 ± 0.06 | 7.72 ± 0.05 | 6.7 ± 0.05 | –
x1 = 0.6556 | 14.7 ± 0.1 | 12.5 ± 0.1 | 10.6 ± 0.1 | 8.96 ± 0.06 | 7.67 ± 0.05 | –
x1 = 0.7055 | 17.6 ± 0.1 | 14.8 ± 0.1 | 12.4 ± 0.1 | 10.4 ± 0.1 | 8.88 ± 0.06 | –
x1 = 0.7549 | 21 ± 0.1 | 17.6 ± 0.1 | 14.6 ± 0.1 | 12.2 ± 0.1 | 10.3 ± 0.1 | –
x1 = 0.8042 | 25.2 ± 0.2 | 21 ± 0.1 | 17.3 ± 0.1 | 14.3 ± 0.1 | 12 ± 0.1 | –
x1 = 0.8533 | 30.4 ± 0.2 | 25 ± 0.2 | 20.5 ± 0.1 | 16.8 ± 0.1 | 14 ± 0.1 | –
x1 = 0.9024 | 36.5 ± 0.2 | 29.8 ± 0.2 | 24.2 ± 0.2 | 19.7 ± 0.1 | 16.4 ± 0.1 | –
x1 = 0.9512 | 43.8 ± 0.3 | 35.5 ± 0.2 | 28.5 ± 0.2 | 23.1 ± 0.2 | 19 ± 0.1 | –

NC=O + CCO
Details | viscosity [mPa·s]
293.15 K, 101 kPa, x1 = 0.0698 | 1.251 ± 0.0081
298.15 K, 100 kPa, x1 = 0.08099 | 1.17 ± 0.03
298.15 K, 100 kPa, x1 = 0.141 | 1.24 ± 0.03
298.15 K, 100 kPa, x1 = 0.1644 | 1.27 ± 0.03
298.15 K, 100 kPa, x1 = 0.2196 | 1.37 ± 0.03
298.15 K, 100 kPa, x1 = 0.25 | 1.43 ± 0.03
298.15 K, 100 kPa, x1 = 0.2924 | 1.5 ± 0.03
298.15 K, 100 kPa, x1 = 0.3698 | 1.66 ± 0.04
298.15 K, 100 kPa, x1 = 0.4031 | 1.73 ± 0.04
298.15 K, 100 kPa, x1 = 0.4124 | 1.74 ± 0.04
298.15 K, 100 kPa, x1 = 0.5124 | 1.98 ± 0.04
298.15 K, 100 kPa, x1 = 0.5644 | 2.11 ± 0.05
298.15 K, 100 kPa, x1 = 0.6278 | 2.29 ± 0.05
298.15 K, 100 kPa, x1 = 0.7077 | 2.5 ± 0.05
298.15 K, 100 kPa, x1 = 0.7726 | 2.67 ± 0.06
298.15 K, 100 kPa, x1 = 0.8608 | 2.91 ± 0.06
298.15 K, 100 kPa, x1 = 0.9558 | 3.19 ± 0.07
298.15 K, 101 kPa, x1 = 0.0698 | 1.152 ± 0.0076
298.15 K, 101 kPa, x1 = 0.1005 | 1.229 ± 0.026
298.15 K, 101 kPa, x1 = 0.1991 | 1.376 ± 0.032
298.15 K, 101 kPa, x1 = 0.3014 | 1.563 ± 0.04
298.15 K, 101 kPa, x1 = 0.4071 | 1.816 ± 0.053
298.15 K, 101 kPa, x1 = 0.4991 | 2.01 ± 0.063
298.15 K, 101 kPa, x1 = 0.6093 | 2.259 ± 0.076
298.15 K, 101 kPa, x1 = 0.7024 | 2.515 ± 0.09
298.15 K, 101 kPa, x1 = 0.8108 | 2.782 ± 0.11
298.15 K, 101 kPa, x1 = 0.9 | 3.054 ± 0.12
303.15 K, 101 kPa, x1 = 0.0698 | 1.043 ± 0.0069
303.15 K, 101.3 kPa, x1 = 0.0716 | 0.97 ± 0.05
303.15 K, 101.3 kPa, x1 = 0.1365 | 1.03 ± 0.05
303.15 K, 101.3 kPa, x1 = 0.2357 | 1.1 ± 0.1
303.15 K, 101.3 kPa, x1 = 0.3142 | 1.3 ± 0.1
303.15 K, 101.3 kPa, x1 = 0.3842 | 1.4 ± 0.1
303.15 K, 101.3 kPa, x1 = 0.4597 | 1.5 ± 0.1
303.15 K, 101.3 kPa, x1 = 0.5389 | 1.6 ± 0.1
303.15 K, 101.3 kPa, x1 = 0.609 | 1.8 ± 0.1
303.15 K, 101.3 kPa, x1 = 0.6872 | 1.9 ± 0.1
303.15 K, 101.3 kPa, x1 = 0.7741 | 2.1 ± 0.1
303.15 K, 101.3 kPa, x1 = 0.7928 | 2.2 ± 0.1
303.15 K, 101.3 kPa, x1 = 0.926 | 2.6 ± 0.1
308.15 K, 101 kPa, x1 = 0.0698 | 0.9456 ± 0.0063
308.15 K, 101.3 kPa, x1 = 0.0716 | 0.89 ± 0.05
308.15 K, 101.3 kPa, x1 = 0.1365 | 0.93 ± 0.05
308.15 K, 101.3 kPa, x1 = 0.2357 | 1.05 ± 0.05
308.15 K, 101.3 kPa, x1 = 0.3142 | 1.1 ± 0.1
308.15 K, 101.3 kPa, x1 = 0.3842 | 1.2 ± 0.1
308.15 K, 101.3 kPa, x1 = 0.4597 | 1.3 ± 0.1
308.15 K, 101.3 kPa, x1 = 0.5389 | 1.5 ± 0.1
308.15 K, 101.3 kPa, x1 = 0.609 | 1.5 ± 0.1
308.15 K, 101.3 kPa, x1 = 0.6872 | 1.7 ± 0.1
308.15 K, 101.3 kPa, x1 = 0.7741 | 1.8 ± 0.1
308.15 K, 101.3 kPa, x1 = 0.7928 | 1.9 ± 0.1
308.15 K, 101.3 kPa, x1 = 0.926 | 2.3 ± 0.1
313.15 K, 101 kPa, x1 = 0.0698 | 0.8712 ± 0.0059
313.15 K, 101 kPa, x1 = 0.1005 | 0.916 ± 0.014
313.15 K, 101 kPa, x1 = 0.1991 | 1.016 ± 0.017
313.15 K, 101 kPa, x1 = 0.3014 | 1.145 ± 0.022
313.15 K, 101 kPa, x1 = 0.4071 | 1.319 ± 0.03
313.15 K, 101 kPa, x1 = 0.4991 | 1.465 ± 0.036
313.15 K, 101 kPa, x1 = 0.6093 | 1.622 ± 0.044
313.15 K, 101 kPa, x1 = 0.7024 | 1.8 ± 0.052
313.15 K, 101 kPa, x1 = 0.8108 | 1.986 ± 0.062
313.15 K, 101 kPa, x1 = 0.9 | 2.174 ± 0.072
313.15 K, 101.3 kPa, x1 = 0.0716 | 0.8 ± 0.05
313.15 K, 101.3 kPa, x1 = 0.1365 | 0.85 ± 0.05
313.15 K, 101.3 kPa, x1 = 0.2357 | 0.95 ± 0.05
313.15 K, 101.3 kPa, x1 = 0.3142 | 1.04 ± 0.05
313.15 K, 101.3 kPa, x1 = 0.3842 | 1.1 ± 0.1
313.15 K, 101.3 kPa, x1 = 0.4597 | 1.2 ± 0.1
313.15 K, 101.3 kPa, x1 = 0.5389 | 1.3 ± 0.1
313.15 K, 101.3 kPa, x1 = 0.609 | 1.4 ± 0.1
313.15 K, 101.3 kPa, x1 = 0.6872 | 1.5 ± 0.1
313.15 K, 101.3 kPa, x1 = 0.7741 | 1.7 ± 0.1
313.15 K, 101.3 kPa, x1 = 0.7928 | 1.7 ± 0.1
313.15 K, 101.3 kPa, x1 = 0.926 | 2 ± 0.1
318.15 K, 101 kPa, x1 = 0.0698 | 0.8052 ± 0.0055
318.15 K, 101.3 kPa, x1 = 0.0716 | 0.73 ± 0.05
318.15 K, 101.3 kPa, x1 = 0.1365 | 0.77 ± 0.05
318.15 K, 101.3 kPa, x1 = 0.2357 | 0.86 ± 0.05
318.15 K, 101.3 kPa, x1 = 0.3142 | 0.94 ± 0.05
318.15 K, 101.3 kPa, x1 = 0.3842 | 1.02 ± 0.05
318.15 K, 101.3 kPa, x1 = 0.4597 | 1.1 ± 0.05
318.15 K, 101.3 kPa, x1 = 0.5389 | 1.2 ± 0.1
318.15 K, 101.3 kPa, x1 = 0.609 | 1.2 ± 0.1
318.15 K, 101.3 kPa, x1 = 0.6872 | 1.3 ± 0.1
318.15 K, 101.3 kPa, x1 = 0.7741 | 1.5 ± 0.1
318.15 K, 101.3 kPa, x1 = 0.7928 | 1.5 ± 0.1
318.15 K, 101.3 kPa, x1 = 0.926 | 1.8 ± 0.1
323.15 K, 101.3 kPa, x1 = 0.0716 | 0.64 ± 0.05
323.15 K, 101.3 kPa, x1 = 0.1365 | 0.68 ± 0.05
323.15 K, 101.3 kPa, x1 = 0.2357 | 0.75 ± 0.05
323.15 K, 101.3 kPa, x1 = 0.3142 | 0.83 ± 0.05
323.15 K, 101.3 kPa, x1 = 0.3842 | 0.89 ± 0.05
323.15 K, 101.3 kPa, x1 = 0.4597 | 0.93 ± 0.05
323.15 K, 101.3 kPa, x1 = 0.5389 | 0.98 ± 0.05
323.15 K, 101.3 kPa, x1 = 0.609 | 1.04 ± 0.05
323.15 K, 101.3 kPa, x1 = 0.6872 | 1.1 ± 0.1
323.15 K, 101.3 kPa, x1 = 0.7741 | 1.2 ± 0.1
323.15 K, 101.3 kPa, x1 = 0.7928 | 1.2 ± 0.1
323.15 K, 101.3 kPa, x1 = 0.926 | 1.5 ± 0.1
